In patent US7560473B2 (Institute of Pharmacology and Toxicology Academy of …, priority 2001, dated 2009):

Experiments:
[1] = tested on: spontaneously hypertensive rats; assay: Acute antihypertensive effects in conscious spontaneously hypertensive rats; assay type: in vivo; conditions: po mg/kg: compound 1 3, pinacidil 3, nifedipine 10, bisoprolol 60, captopril 40, means ± SD, 9-13 rats; for heart rates at 1 h / heart rates at 3 h / heart rates at 5 h / heart rates at 9 h / heart rates at 12 h / heart rates at 24 h / heart rates base value: in bpm (unit assumed); for SBP base value / heart rates base value: base value before administration
Source text: Biological activity experiment 2. The acute antihypertensive effects of compound 1 in conscious spontaneously hypertensive rats.
The methods of biological activity experiment 2 were described by Long Chao-Liang et al: Long Chao-Liang, Wang Hai, Xiao Wen-Bin. Effects of pinacidil on, hypertensive vascular remodeling. Chin J Pharmacol Toxicol 1997; 11(1):42-46.

[2] = tested on: rats anesthetized with pentobarbital sodium; assay: Antagonism of glibenclamide on the cardiovascular effects in anesthetized rats; assay type: in vivo, Wistar rats; conditions: iv mg/kg: pinacidil 1.0, nifedipine 1.0, compound 1 0.5, means ± SE
Procedure: (§1) The methods of biological activity experiment 1 were as follows: Male Wistar rats, weighing 280±30 g were purchased from the experimental animal center of Academy of Military Medical Sciences. Rats were anesthetized with pentobarbital sodium (45 mg/kg) by peritoneal injection. A PE50 polyethylene catheter was inserted into the left ventricle through right carotid artery for cardiac function measurement with a pressure energe exchanger, wherein the signal is put into a SMUP-PC biosignal processing system. Cardiac functional parameters such as HR, LVSP, +dp/dtmax, −dp/dtmax and Vpm were recorded. Another two PE50 polyethylene catheters were inserted into the right femoral artery and vein respectively for blood pressure measurement wherein the artery cathether was linked to a four-channel physiology recorder (RM-6000) through a MPU-0.5A Type pressure energe exchanger, which recorded SBP, DBP and MBP, while the vein catheter was used for compound administration. The methods were described by Liu Wei et al: Liu Wei, Wang Hai, Xiao Wen-Bin.
The methods of Biological activity experiment 3 were the same as those described in the biological activity experiment 1.

[3] = tested on: rats anesthetized with pentobarbital sodium; assay: Effects on blood pressure, heart rate, cardiac contraction and dilation in rats anesthetized with pentobarbital sodium; assay type: in vivo, Wistar rats; parameters: unit not given here; conditions: change after injection through femoral vein, '+' = increase, all others = decrease; for MBP: mean blood pressure: n = 3~5, doses mg/kg: 2, 8, 12: 10, 3-7, 9-11, 40-44: 5; for DBP: diastolic blood pressure / HR: heart rate / LVSP: left ventricular systolic pressure / SBP: systolic blood pressure / Vpm: the physiological velocity of contractile element shorting / −dp/dtmax: the maximal rate of the decrease of left ventricular pressure: mean, n = 3~5, doses mg/kg: 2, 8, 12: 10, 3-7, 9-11, 40-44: 5
Procedure: Biological activity experiment 1. The effects of 16 compounds represented by formula I on blood pressure, heart rate, cardiac contraction and dilation in rats anesthetized with pentobarbital sodium.
as §1, with “Wen-Bin. […] Bull Acad Mil Med Sci 1996;20(4):245˜248.” for “Wen-Bin.”

[4] = A: after administration (30 min after pinacidil, 10 min nifedipine, 15 min compound 1), glibenclamide 20 iv pretreatment
[5] = B: before administration, glibenclamide 20 iv pretreatment ten minutes

C[C@H](CS)C(=O)N1CCC[C@H]1C(=O)O [captopril]
SBP at 1 h after administration [1]: 207 ± 9 mmHg
heart rates at 1 h [1]: 380 ± 12
SBP at 3 h after administration [1]: 213 ± 11 mmHg
heart rates at 3 h [1]: 370 ± 24
SBP at 5 h after administration [1]: 233 ± 10 mmHg
heart rates at 5 h [1]: 366 ± 22
SBP at 9 h after administration [1]: 242 ± 4 mmHg
heart rates at 9 h [1]: 355 ± 12
SBP at 12 h after administration [1]: 241 ± 5 mmHg
heart rates at 12 h [1]: 355 ± 29
SBP at 24 h after administration [1]: 243 ± 4 mmHg
heart rates at 24 h [1]: 364 ± 12
SBP base value [1]: 243 ± 4 mmHg
heart rates base value [1]: 350 ± 17

COC(=O)C1=C(C)NC(C)=C(C(=O)OC)C1c1ccccc1[N+](=O)[O-] [nifedipine]
SBP at 1 h after administration [1]: 186 ± 6 mmHg
heart rates at 1 h [1]: 410 ± 11
SBP at 3 h after administration [1]: 219 ± 12 mmHg
heart rates at 3 h [1]: 410 ± 31
SBP at 5 h after administration [1]: 235 ± 5 mmHg
heart rates at 5 h [1]: 367 ± 24
SBP at 9 h after administration [1]: 240 ± 6 mmHg
heart rates at 9 h [1]: 365 ± 13
SBP at 12 h after administration [1]: 242 ± 4 mmHg
heart rates at 12 h [1]: 365 ± 16
SBP at 24 h after administration [1]: 242 ± 4 mmHg
heart rates at 24 h [1]: 364 ± 22
SBP base value [1]: 242 ± 5 mmHg
heart rates base value [1]: 352 ± 19
DBP [2, 4]: 62 ± 7 mmHg
LVSP [2, 4]: 113 ± 7 mmHg
MBP [2, 4]: 76 ± 8 mmHg
Vpm [2, 4]: 4.2 ± 0.5 /a
DBP [2, 5]: 95 ± 8 mmHg
LVSP [2, 5]: 131 ± 6 mmHg
MBP [2, 5]: 111 ± 7 mmHg
Vpm [2, 5]: 5.7 ± 0.1 /a

CC(C)NC(C)C(C)C (centres unmarked) [compound 7]
MBP: mean blood pressure [3]: 34
DBP: diastolic blood pressure [3]: 34
HR: heart rate [3]: 46
LVSP: left ventricular systolic pressure [3]: 184
SBP: systolic blood pressure [3]: 34
Vpm: the physiological velocity of contractile element shorting [3]: 1.08
−dp/dtmax: the maximal rate of the decrease of left ventricular pressure [3]: 226

CC(C)C[C@H](N)C(=O)NC(C)(C)C(C)C [compound 42, N-leucyl-2,3-dimethyl-2-butylamine]
MBP: mean blood pressure [3]: +2
DBP: diastolic blood pressure [3]: +2
HR: heart rate [3]: +1
LVSP: left ventricular systolic pressure [3]: +10
SBP: systolic blood pressure [3]: +2
Vpm: the physiological velocity of contractile element shorting [3]: +0.18
−dp/dtmax: the maximal rate of the decrease of left ventricular pressure [3]: +13

CCC(C)N (centres unmarked) [compound 10]
MBP: mean blood pressure [3]: 4
DBP: diastolic blood pressure [3]: 5
HR: heart rate [3]: 20
LVSP: left ventricular systolic pressure [3]: 21
SBP: systolic blood pressure [3]: 2
Vpm: the physiological velocity of contractile element shorting [3]: 0.25
−dp/dtmax: the maximal rate of the decrease of left ventricular pressure [3]: 27

CCC(C)N (centres unmarked) [compound 12]
MBP: mean blood pressure [3]: 24
DBP: diastolic blood pressure [3]: 23
HR: heart rate [3]: 39
LVSP: left ventricular systolic pressure [3]: 112
SBP: systolic blood pressure [3]: 25
Vpm: the physiological velocity of contractile element shorting [3]: 0.58
−dp/dtmax: the maximal rate of the decrease of left ventricular pressure [3]: 129

CC[C@H](C)[C@H](N)C(=O)NC(C)(C)C(C)C [compound 41, N-isoleucyl-2,3-dimethyl-2-butylamine]
MBP: mean blood pressure [3]: +1
DBP: diastolic blood pressure [3]: +1
HR: heart rate [3]: 16
LVSP: left ventricular systolic pressure [3]: +4
SBP: systolic blood pressure [3]: +2
Vpm: the physiological velocity of contractile element shorting [3]: 0
−dp/dtmax: the maximal rate of the decrease of left ventricular pressure [3]: +2

CC(C)NCC(O)COc1ccc(COCCOC(C)C)cc1 (centres unmarked) [bisoprolol]
SBP at 1 h after administration [1]: 211 ± 7 mmHg
heart rates at 1 h [1]: 283 ± 17
SBP at 3 h after administration [1]: 240 ± 7 mmHg
heart rates at 3 h [1]: 278 ± 16
SBP at 5 h after administration [1]: 242 ± 4 mmHg
heart rates at 5 h [1]: 335 ± 34
SBP at 9 h after administration [1]: 242 ± 3 mmHg
heart rates at 9 h [1]: 320 ± 36
SBP at 12 h after administration [1]: 243 ± 3 mmHg
heart rates at 12 h [1]: 341 ± 28
SBP at 24 h after administration [1]: 242 ± 6 mmHg
heart rates at 24 h [1]: 360 ± 7
SBP base value [1]: 242 ± 5 mmHg
heart rates base value [1]: 355 ± 17

CCC(C)(C)NC [compound 11]
MBP: mean blood pressure [3]: 13
DBP: diastolic blood pressure [3]: 10
HR: heart rate [3]: 19
LVSP: left ventricular systolic pressure [3]: +159
SBP: systolic blood pressure [3]: 18
Vpm: the physiological velocity of contractile element shorting [3]: 0.1
−dp/dtmax: the maximal rate of the decrease of left ventricular pressure [3]: +86

CC(C)C(C)(C)NC(=O)[C@@H](N)Cc1ccccc1 [compound 43, N-phenylalanyl-2,3-dimethyl-2-butylamine]
MBP: mean blood pressure [3]: +2
DBP: diastolic blood pressure [3]: +1
HR: heart rate [3]: +10
LVSP: left ventricular systolic pressure [3]: +31
SBP: systolic blood pressure [3]: +3
Vpm: the physiological velocity of contractile element shorting [3]: +0.13
−dp/dtmax: the maximal rate of the decrease of left ventricular pressure [3]: +10

CC(C)C(C)(C)NC(=O)[C@@H](N)Cc1c[nH]c2ccccc12 [compound 40, N-tryptophanyl-2,3-dimethyl-2-butylamine]
MBP: mean blood pressure [3]: +0.7
DBP: diastolic blood pressure [3]: 0
HR: heart rate [3]: 6
LVSP: left ventricular systolic pressure [3]: +23
SBP: systolic blood pressure [3]: +2
Vpm: the physiological velocity of contractile element shorting [3]: +0.1
−dp/dtmax: the maximal rate of the decrease of left ventricular pressure [3]: +6

CNC(C)C [compound 8]
MBP: mean blood pressure [3]: 26
DBP: diastolic blood pressure [3]: 24
HR: heart rate [3]: 53
LVSP: left ventricular systolic pressure [3]: 121
SBP: systolic blood pressure [3]: 28
Vpm: the physiological velocity of contractile element shorting [3]: 1.45
−dp/dtmax: the maximal rate of the decrease of left ventricular pressure [3]: 124
